The target in data set [1] is T1, human liver cathepsin L (Homo sapiens, UniProt P07711).
T1 construct: 8.7 ng/mL human liver cathepsin L (Calbiochem 219402); purchased Calbiochem 219402; host or cells: human liver
The experiment in a line: HTS of MLSMR library and confirmatory dose response against cathepsin L. Type of data set: biochemical. The conditions noted are these: 10 μM compound. On the procedure:
57,821 compounds from the NIH Molecular Libraries Small Molecule Repository (MLSMR) were screened against human liver cathepsin L. This screen was performed in 384-well Corning 3676 black, low-volume, non-binding surface (NBS)-coated polystyrene plates using a total reaction volume of 10 μL per well. Final well concentrations were: 10 μM compound (2% DMSO), 300 pM (8.7 ng/mL) human liver cathepsin L, 1 μM Z-FR-AMC substrate, and 20 mM sodium acetate buffer containing 1 mM EDTA and […], pH 5.5. Cathepsin L was activated in the assay buffer for 30 minutes prior to dispensing into wells. Assay plates were incubated at room temperature for one how and the fluorescence intensity of each well was read with a PerkinElmer Envision plate reader (Ex: 355 nm, Em: 460 nm) to measure hydrolysis of the AMC substrate.
Library samples containing 2,5-disubstituted oxadiazoles were identified as potent hits in a high throughput screen of the NIH Molecular Libraries Small Molecule Repository directed at discovering inhibitors of cathepsin L (Table I). […] Analyses by LC-MS of original library samples indicated the presence of a number of impurities, in addition to the oxadiazoles. Synthesis and bioassay of the probable impurities led to the identification of a thiocarbazate that likely originated via ring opening of the oxadiazole. […]

In the next data set the target is human cathepsin L (Homo sapiens, UniProt P07711). The experiment in a line: Preincubation studies, cathepsin L. Type of data set: biochemical. The following applies: preincubation with enzyme 4 h; read-out: IC50 against human cathepsin L after 4 hours preincubation. Also noted: 8.7 ng/mL human liver cathepsin L (Calbiochem 219402); purchased Calbiochem 219402; host or cells: human liver. On the procedure:
To establish the time-dependent mechanism of inhibition, enzyme and inhibitor were preincubated for various time points in a 96-well microplate prior to the addition of substrate to initiate the enzymatic reaction. 47.5 μL of cathepsin L (18.3 ng/mL) and 47.5 μL of Compound No. 1 at various concentrations in assay buffer were incubated up to 4 hours. Five μL of Z-Phe-Arg-AMC substrate were then added and the plate was monitored for AMC hydrolysis on the Envision fluorescent microplate reader.

The test system of data set [2] is SARS coronavirus pseudotype. The experiment in a line: microbe, parasite or virus in culture. In kind it is cell-based. The following applies: read-out: IC50, SARS-CoV pseudotype entry.
The target in the next data set is T2, Human liver cathepsin B (Homo sapiens, UniProt P07858).
T2 construct: Human liver cathepsin B (Calbiochem 219362, 65 ng/mL); purchased Calbiochem 219362; host or cells: human liver
Description: Cathepsin B assay, IC50 determination. In kind it is biochemical. The following applies: for Selectivity Index (IC50 Cat B)/(IC50 Cat L): Cathepsin B vs cathepsin L. An outline of the steps: (§1)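 Spleen cathepsin S (40 ng/mL) with 15 microM Z-Phe-Arg-AMC and liver cathepsin B (65 ng/mL) with 15 microM Z-Arg-Arg-AMC, in 20 mM sodium acetate, 1 mM EDTA, 5 mM cysteine, pH 5.5. AMC fluorescence release monitored; IC50 measured in triplicate.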

The subject of a further data set is Ebola virus pseudotype. Description: microbe, parasite or virus in culture. In kind it is cell-based. The conditions noted are these: read-out: IC50, Ebola virus pseudotype entry.
Another data set concerns zebrafish. Description: Zebrafish live organism toxicity assay. The following applies: at 100 μM.
Data set [3] concerns the target T1, human liver cathepsin L. Description: Cathepsin L assay, IC50 determination. Type of data set: biochemical. An outline of the steps: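 Enzyme (300 pM) pre-activated for 30 min in 20 mM sodium acetate, 1 mM EDTA, 5 mM cysteine, pH 5.5, then incubated 1 h at room temperature with 1 microM Z-Phe-Arg-AMC and compound. Fluorescent read-out on a microplate reader; IC50 in triplicate.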

Data set [4] relates to Vesicular stomatitis virus (VSV). The experiment in a line: microbe, parasite or virus in culture. Type of data set: cell-based. The conditions noted are these: read-out: IC50, VSV entry (control).
The next data set deals with T3, Human spleen cathepsin S (Homo sapiens, UniProt P25774).
T3 construct: Human spleen cathepsin S (Calbiochem 219344, 40 ng/mL); purchased Calbiochem 219344; host or cells: human spleen
The experiment in a line: Cathepsin S assay, IC50 determination. Type of data set: biochemical. The following applies: Tables 2-11; read-out: Cat S. An outline of the steps:
as §1

Structures are written as SMILES. Like-named read-outs stand apart in the source and are kept apart here.

T1 sequence (P07711 114-288 limits assumed): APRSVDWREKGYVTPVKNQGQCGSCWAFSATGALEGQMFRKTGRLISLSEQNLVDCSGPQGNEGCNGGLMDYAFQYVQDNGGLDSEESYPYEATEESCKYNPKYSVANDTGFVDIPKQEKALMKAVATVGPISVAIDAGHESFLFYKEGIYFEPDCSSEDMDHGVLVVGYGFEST
T1 sequence (P07711 292-333 limits assumed): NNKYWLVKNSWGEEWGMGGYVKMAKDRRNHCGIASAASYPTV
Sequence of human cathepsin L (P07711 114-288 limits assumed): as the sequence (P07711 114-288 limits assumed) above
Sequence of human cathepsin L (P07711 292-333 limits assumed): as the sequence (P07711 292-333 limits assumed) above
T3 sequence (P25774 115-331): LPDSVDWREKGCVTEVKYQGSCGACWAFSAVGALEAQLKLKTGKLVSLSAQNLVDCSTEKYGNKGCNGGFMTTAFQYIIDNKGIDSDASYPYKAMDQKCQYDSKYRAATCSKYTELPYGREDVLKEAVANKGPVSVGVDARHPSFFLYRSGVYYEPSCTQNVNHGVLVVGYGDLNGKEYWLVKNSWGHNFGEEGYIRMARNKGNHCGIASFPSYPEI

For `CC(C)CCNC(=O)[C@H](CC(C)C)NC(=O)[C@H]1O[C@@H]1C(=O)O` [E-64c], the “HTS identification as cathepsin L inhibitor (in words)” value at human liver cathepsin L [1] was “potent inhibitors of cathepsin L”.

Regarding `CC(C)C[C@H](NC(=O)[C@H]1O[C@@H]1C(=O)O)C(=O)NCCCCN=C(N)N` [E-64], on human liver cathepsin L [1], the “HTS identification as cathepsin L inhibitor (in words)” value is reported as “potent inhibitors of cathepsin L”.

Regarding `CC(C)(C)OC(=O)N[C@@H](Cc1c[nH]c2ccccc12)C(=O)NNC(=O)OCC(=O)N1CCCc2ccccc21` [Compound No. 96], the IC50 on human cathepsin L is 0.4 nM; in [2] (Severe acute respiratory syndrome coronavirus, HEK-293T), 273 ± 49 nM; in data set [2] it was approximately 200 nM; on Human liver cathepsin B (Table 18, Cathepsin B, human liver, no preincubation, read-out: IC50), 5070 ± 883 nM; on Human liver cathepsin B (Tables 2-11, read-out: Cat B) it was 10100 nM; in the data set with Ebola virus pseudotype (Zaire ebolavirus, HEK-293T), 193 ± 39 nM. The IC50 with Ebola virus pseudotype was approximately 200 nM; on human liver cathepsin L [3] (Tables 2-11, read-out: Cat L), 6 nM; at human liver cathepsin L [3] (no preincubation of enzyme and inhibitor, read-out: IC50 against cathepsin L (no preincubation)), 6.9 nM; in [4] (Vesicular stomatitis virus) it was not below 10000 nM; in data set [4], more than 10000 nM; on Human spleen cathepsin S, 25 nM. The “Selectivity Index (IC50 Cat B)/(IC50 Cat L)” value on Human liver cathepsin B (no preincubation) was found to be 724.6; on Human liver cathepsin B (no preincubation, listed as SID 46493575), 725. For the same compound, in the data set with zebrafish, the toxicity to zebrafish result is given as “Non-toxic to zebrafish at 100 μM”. Moreover, the “Selectivity Index” value at human liver cathepsin L [3] (Table 18, Cathepsin L) was determined as 1.0.

The record behind these values is patent publication US20110207726A1, “Inhibitors of Human Cathepsin L, Cathepsin B, and Cathepsin S” (The Trustees of the University of Pennsylvania, priority 2008, published 2011).
